We go through 2 substances from PMC10732398 (PLOS Pathogens, 2023).

Experiment [1] relates to ⍺4β7. The experiment is described as follows: SPR binding kinetics: recombinant ⍺4β7 passed over ligand-coated surfaces (S1 Table). The conditions noted are these: SPR Biacore 3000, ligand immobilized, ⍺4β7 analyte, HBS pH 7.4, 1 mM MnCl2, 25°C. As for the experimental part:
To measure the specific affinity of CD4–⍺4β7 interactions we developed a surface plasmon resonance (SPR) -based assay in which recombinant ⍺4β7 was passed over a surface coated with a 23 kD D1D2 protein (aa 1–183). For comparison we prepared surfaces with recombinant MAdCAM-Ig, VCAM-Ig, monomeric gp120, and a SOSIP env trimer (S1 Table). Assays were carried out in the presence of MnCl2 to present ⍺4β7 in an active conformation. […] This rate of dissociation was similar to that of both MAdCAM-Ig and VCAM-Ig with ⍺4β7 and is indicative of a relatively high-affinity interaction.
(§1) Experiments were performed using a Biacore 3000 instrument (Cytiva Life Sciences) using CM4 or CM5 sensor chips. The data were evaluated using BIAevaluation 4.1.1 software (Cytiva Life Sciences). The chip surface was activated by injecting 35 μl of a 1:1 mixture of 0.05 M N-hydroxysuccinimide and 0.2 M N-ethyl-N-(dimethylaminopropyl) carbodiimide at 5 μl/min. NeutrAvidin, HIV gp120, sCD4 (D1D2) or Hu-MAdCAM-Ig (R&D Systems) at concentrations of 5 μg/ml in 10mM NaOAc, pH 4.5, were immobilized to 250–750 resonance units (RU). After the proteins were immobilized to the desired densities, unreacted sites were blocked with 35 μl of 1 M Tris-HCl (pH 8.0). Biotinylated cyclic V2 peptides (1 μg/ml in 20 mM Tris-HCl, pH 8.0) were bound to the NeutrAvidin surfaces to densities of approximately 250–300 RU. One surface was activated and blocked without ligand as a control surface for non-specific binding. Signal from the control surface was subsequently subtracted. Running buffer was HBS (pH 7.4), 1 mM MnCl2, 0.005% Tween- 20, 0.05% soluble carboxymethyl-dextran. Binding experiments were carried out at a flow rate of 25 μl/min at 25°C. After a 2 min injection, the surface was washed for an additional 2 min in running buffer allowing dissociation of the bound ligand from the surface. The surfaces were regenerated by multiple injections of 4.5 M MgCl2 at a flow rate of 100 μl/min. Inhibition of ⍺4β7 binding by linear V2-loop and CD4 derived peptides was carried out by pre-incubating ⍺4β7 with the peptides in running buffer at the indicated concentrations for 2 hours at room temperature prior to passing them over the prepared surfaces as described above. Cross-inhibition experiments were performed by passing either buffer or the listed analytes over a surface to which sCD4 (D1D2) had been immobilized, followed by a secondary sequential injection of ⍺4β7. The ability of each analyte to inhibit either itself or ⍺4β7 was determined by comparing the binding of ⍺4β7 in the absence or presence of the listed pre-bound analytes as previously described. Illustration of the dynamic range of range of linear peptide inhibition assays is provided in S4 Fig.
In general terms: Surface plasmon resonance follows binding to a sensor surface in real time, without labels.

The test system of experiment [2] is ⍺4β7. The experiment is described as follows: SPR: inhibition by linear peptides of soluble ⍺4β7 binding to a CD4 D1D2 coated surface. The settings on record: SPR peptide scan (Fig 4A); ⍺4β7 pre-incubated with peptide 2 hours at room temperature; 1 mM MnCl2.
Source text: We next modified our SPR -based assay in order to map the site(s) on CD4 that interacts with ⍺4β7. In this modified assay ⍺4β7 was passed over a surface coated with CD4 D1D2 in the absence or presence of 42 overlapping 15 amino acid linear peptides spanning CD4 residues 1–178 (S2 Table). Two peptides located in CD4 D1, #7 and #9, inhibited ⍺4β7 binding by ~17% (Fig 4A). The final peptide in CD4 D2, p42, inhibited binding by ~ 66%. Linear peptides often lack the true conformation of the protein from which they are derived. Additionally, the kinetic format of our assay allows for ligand-analyte rebinding during the association phase. These features render this inhibition assay somewhat insensitive. Nevertheless, the dynamic range of this assay is sufficient to identify interactions that are worthy of follow-up investigation (S4 Fig). As such, our preliminary findings raised the possibility that both D1 and D2 domains of CD4 interact with ⍺4β7. Of note, MAdCAM-1 and VCAM-1, like CD4, present two tandemly arrayed N-terminal IgSF domains (Fig 4B). In both cases, binding to ⍺4β7 is mediated by a 1° binding site in their D1s and an accessory site, located in their D2s. The term accessory is a misnomer insofar as these sites plays an essential role in ⍺4β7 binding. Follow-up experiments focused on p9 and p42, which we herein refer to as pCD4^33-47 and pCD4^165-178. pCD4^33-47 partially overlaps the D1 C’C” β-strands and a connecting loop. The primary gp120 contact site (Phe^43) lies at the N-terminal edge of this loop (Fig 4C). pCD4^165-178 includes Q^165 and K^166. These residues lie primarily within the G β-strand of D2, close to the boundary with D3. Because peptide inhibition assays sometime mediate nonspecific effects, further analysis was performed to better establish the role of these two regions of CD4 in binding to ⍺4β7.
To determine if this is the case, we employed an SPR -based assay. Biosensor surfaces were coated with either CD4 D1D2 or a 42 aa cyclic V2 peptide derived from the subtype E 92TH023 gp120 (cV2 92TH023). A third surface coated with MAdCAM-Ig was employed as a positive control. Soluble ⍺4β7 was passed over these surfaces. We then evaluated the capacity of staggered 15 aa peptides that span either CD4 D2 or gp120 V2 to inhibit this interaction (Fig 7A).
as §1, with “Cross-inhibition experiments were performed by passing either buffer or the listed analytes over a surface to which sCD4 (D1D2) had been immobilized, followed by a secondary sequential injection of ⍺4β7. The ability of each analyte to inhibit either itself or ⍺4β7 was determined by comparing the binding of ⍺4β7 in the absence or presence of the listed pre-bound analytes as previously described. Illustration of the dynamic range of range of linear peptide inhibition assays is provided in S4 Fig.” left out

As to “MAdCAM-Ig: recombinant MAdCAM-1 Ig fusion, R&D Systems [reference compound]”, in the experiment with ⍺4β7 [1], the KA worked out at 1.12e+08 M⁻¹, the ka amounted to 96700 M⁻¹ s⁻¹ and the kd amounted to 0.000863 s⁻¹.

“QKKVEFKIDIVVLA [CD4 P42, linear CD4 D2 peptide, residues 165-178, G β-strand]”: the “inhibition of ⍺4β7 binding to CD4 D1D2 coated surface” value in the experiment on ⍺4β7 [2] is ~ 66%.
